Experimental data published in US20070154963A1, “Method to determine whether a compound is a cellular GSTpi inhibitor” (priority 2005, published 2007).
Numbered stars: 1 amine (or outer) side, 2 acyl side, 3 side chain; on linkers, the order of the positions; unused ones are H or OH. Square brackets hold non-standard residues; d marks the D form. Peptide text beside a SMILES is read from it. * marks the point of attachment. γGlu = O=C(O)[C@H](CCC(=O)[*:2])N[*:1]; dPhg = N[C@@H](C(=O)O)c1ccccc1; Bn = c1ccc(C*)cc1

Assays:
GSTπ = target: T1, GSTπ (Homo sapiens, UniProt P09211); assay: cellular GSTπ inhibition: immunoprecipitable GSTπ in HL-60 cell lysate, Western blot; type: cell-based
T1 construct: host or cells: HL-60 human promyelocytic leukemia cells
T1 sequence (P09211 2-210 limits assumed): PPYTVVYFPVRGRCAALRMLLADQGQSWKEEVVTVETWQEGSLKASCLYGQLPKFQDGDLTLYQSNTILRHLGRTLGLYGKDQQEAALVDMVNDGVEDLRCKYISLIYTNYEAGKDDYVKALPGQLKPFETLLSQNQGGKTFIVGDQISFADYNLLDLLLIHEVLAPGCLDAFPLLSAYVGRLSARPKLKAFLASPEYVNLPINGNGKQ
Description: RPMI 1640 medium, NuPAGE® LDS sample buffer (non-reducing lithium dodecyl sulfate buffer, Catalog # NP0007), and NuPAGE® Novex 4-12% Bis-Tris polyacrylamide gels (Catalog # NP0321) were obtained from Invitrogen, Inc., Carlsbad, Calif., U.S.A. Complete Mini protease inhibitor cocktail tablets (Catalog # 04 693 124 001) were obtained from Roche Diagnostics, Inc., Indianapolis, Ind., U.S.A., and were used according to package directions. Lysis buffer (50 mM Tris, pH 8.0, 120 mM NaCl, 0.5% NP-40, and 100 mM NaF) was prepared at Telik, Inc., and the protease inhibitors added shortly before use.
HL-60 cells were seeded at 6×10^5 cells/mL in 20 mL RPMI 1640 medium supplemented with 10% fetal bovine serum, 1 mM L-glutamine and 20 μM gentamycin in each of six T75 flasks, and incubated at 37° C. overnight in a 5% CO2 atmosphere. […] The contents of each flask were then treated as follows: the cells were pelleted by centrifugation and the cell pellet washed twice with phosphate-buffered saline. The cells were then lysed by suspending the pellet in 1 mL lysis buffer, and incubating with gentle agitation at 4° C. for 30 minutes. The cell lysate was cleared by centrifugation at 13,000 rpm for 10 minutes, and the protein content of the lysate was measured using the Bio-Rad protein assay kit. Cell lysate containing 1 mg total proteins was incubated at 4° C. overnight with 4.2 μg of purified mouse monoclonal anti-human GSTπ antibody in 1 mL total volume. Protein A/G agarose beads, 50 μL, were added to the mixture and incubated at 4° C. for 1 hour. The beads were collected by centrifugation, washed three times in lysis buffer, and resuspended in 10 μL 1× non-reducing lithium dodecyl sulfate buffer, and the suspension heated at 95° C. for 5 minutes. The proteins from the six cell lysates, together with a molecular weight marker, were then separated by electrophoresis on a 4-12% Bis-Tris gel and transferred to a nitrocellulose membrane. […] The GSTπ protein bands were visualized and the summed intensities of the GST P1-1 dimer and GST P1 monomer bands quantitated on an Odyssey infrared scanner.

[1] = normal animals and animals depleted by cisplatin or fluorouracil; cited from earlier work
[2] = tested on: HL-60 promyelocytic leukemia cells; details: in vitro; cited from earlier work
GST P1-1 = GST P1-1 (Homo sapiens, UniProt P09211); details: purified GST P1-1 isoenzyme; read-out: GST P1-1 inhibition IC50; cited from earlier work
Sequence of GST P1-1 (P09211 2-210 limits assumed, species assumed): as the sequence (P09211 2-210 limits assumed) above

[3] = MDS clinical trial, interim results; cited from earlier work
[4] = tested on: hematopoietic progenitor cells in normal human peripheral blood; details: all three lineages; cited from earlier work
[5] = cited from earlier work
[6] = HL-60 cells, 1-40 μM, two hours

CCOC(=O)[C@@H](N)CCC(=O)N[C@@H](CSCc1ccccc1)C(=O)N[C@@H](C(=O)OCC)c1ccccc1 [TLK199]
inhibition at 20 µM (GSTπ; HL-60, 20 μM): ~90% | cellular GSTπ inhibition (amounts of immunoprecipitable GST P1 and GST P1-1 vs DMSO control) (GSTπ; [6]): is a cellular GSTπ inhibitor | concentration dependence of cellular GSTπ inhibitory effect (GSTπ; [6]): concentration dependent | white blood cell production [1]: increase white blood cell production | differentiation of HL-60 cells [2]: induce the differentiation | IC50 (GST P1-1): > 200000 nM | hematologic response [3]: multilineage hematologic improvement | tolerability [3]: well tolerated | colony formation of hematopoietic progenitor cells [4]: stimulate colony formation

N[C@@H](CCC(=O)N[C@@H](CSCc1ccccc1)C(=O)N[C@@H](C(=O)O)c1ccccc1)C(=O)O [TLK117, L-γ-glutamyl-S-(phenylmethyl)-L-cysteinyl-D-phenylglycine] (γGlu-Cys(Bn)-[dPhg]-OH)
IC50 (GST P1-1): ~400 nM | permeability through cell membrane [5]: poor permeability
